This experiment has as its system MX-1 breast xenograft, intrarenal, nude mice, tumor weight. Put plainly: NCI In Vivo Anticancer Drug Screen. Data for tumor model Human Mammary Carcinoma MX-1 Xenograft (intrarenal inoculation) in NU/NU BALB/C (nude) mice. Particulars: endpoint: mean tumor weight change, higher = larger tumour. Summed up:
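Compounds were given to mice carrying transplanted tumors, and tumor size or survival was measured. Each value is the treated-group measurement (T) divided by the vehicle-treated control-group measurement (C).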
(In general: In xenograft studies the graft and the host belong to different species.)

The mark [1] stands for this setting: dose: 300.0 mg/kg/injection, schedule: Q04DX003 (sc), vehicle: saline.
The mark [2] stands for this setting: dose: 150.0 mg/kg/injection, schedule: Q04DX003 (ip), vehicle: saline.
Where [3] appears, read: dose: 300.0 mg/kg/injection, schedule: Q04DX003 (ip), vehicle: saline.
Setting [4] is: dose: 300.0 mg/kg/injection, schedule: Q04DX003 (sc), vehicle: saline with Tween-80.
The mark [5] stands for this setting: dose: 600.0 mg/kg/injection, schedule: Q04DX003 (sc), vehicle: saline with Tween-80.
Setting [6] is: dose: 300.0 mg/kg/injection, schedule: Q04DX003 (ip), vehicle: saline with Tween-80.
Where [7] appears, read: dose: 600.0 mg/kg/injection, schedule: Q04DX003 (ip), vehicle: saline with Tween-80.
The mark [8] stands for this setting: dose: 1200.0 mg/kg/injection, schedule: Q04DX003 (ip), vehicle: saline with Tween-80.

Molecules are shown by their SMILES. Values joined by “and” are separate entries in the source; they are usually repeats but may differ in a detail not shown here. Equal entries are not always repeated. Results filed as inconclusive are left out.

In the case of `C1CC[N-]CC1.C1CC[N-]CC1.C1CC[N-]CC1.[Cl][Rh]([Cl])[Cl]`, the T/C reads like this: (dose: 75.0 mg/kg/injection, schedule: Q04DX003 (sc), vehicle: saline) 90 % of control; (dose: 150.0 mg/kg/injection, schedule: Q04DX003 (sc), vehicle: saline) 90 % of control; under setting [1], 75 % of control.

Consider `CN=NN(C)C(=O)NC`, for which the T/C (dose: 37.5 mg/kg/injection, schedule: Q04DX003 (ip), vehicle: saline) was 112 % of control; the T/C (dose: 75.0 mg/kg/injection, schedule: Q04DX003 (ip), vehicle: saline) is 79 % of control; the T/C (dose: 108.0 mg/kg/injection, schedule: Q04DX003 (ip), vehicle: saline) is 2 % of control; the T/C under setting [2] was 15 % of control; the T/C (dose: 180.0 mg/kg/injection, schedule: Q04DX003 (ip), vehicle: saline with Tween-80) is 108 % of control; the T/C under setting [3] is -13 % of control. Also, the T/C (dose: 500.0 mg/kg/injection, schedule: Q04DX003 (ip), vehicle: saline with Tween-80) was 124 % of control.

Consider `NC(N)=NOCC[C@@H](N)C(=O)O`, for which the T/C is, setting by setting: under setting [1], 87 % of control; (dose: 600.0 mg/kg/injection, schedule: Q04DX003 (sc), vehicle: saline) 111 % of control; (dose: 1200.0 mg/kg/injection, schedule: Q04DX003 (sc), vehicle: saline) 86 % of control; (dose: 2400.0 mg/kg/injection, schedule: Q04DX003 (sc), vehicle: saline) 77 % of control.

Take `NC(N)=NS(=O)(=O)c1ccc(NCc2c3ccccc3nc3ccccc23)cc1`: the T/C is 38 % of control and 41 % of control (dose: 150.0 mg/kg/injection, schedule: Q04DX003 (ip), vehicle: Klucel (hydroxypropylcellulose) (HPC)); 40 % of control and 43 % of control (dose: 300.0 mg/kg/injection, schedule: Q04DX003 (ip), vehicle: Klucel (hydroxypropylcellulose) (HPC)); 17 % of control and 22 % of control (dose: 600.0 mg/kg/injection, schedule: Q04DX003 (ip), vehicle: Klucel (hydroxypropylcellulose) (HPC)); 11 % of control and 17 % of control (dose: 1200.0 mg/kg/injection, schedule: Q04DX003 (ip), vehicle: Klucel (hydroxypropylcellulose) (HPC)).

As for `CC1=C(/C=C/C(C)=C/C=C/C(C)=C/C=O)C(C)(C)CCC1`, the T/C is, setting by setting: (dose: 150.0 mg/kg/injection, schedule: Q04DX003 (sc), vehicle: saline with Tween-80) 84 % of control; under setting [4], 39 % of control; under setting [5], 51 % of control; (dose: 1200.0 mg/kg/injection, schedule: Q04DX003 (sc), vehicle: saline with Tween-80) 34 % of control.

With `CN(C)C1C(=O)C(C(=O)NP(=O)(NCCCO)N(CCCl)CCCl)=C(O)C2(O)C(=O)C3=C(O)c4c(O)cccc4C(C)(O)C3CC12` (stereo not drawn), the T/C was -100 % of control and -98 % of control under setting [4]; -100 % of control under setting [5].

Regarding `CCc1ccc(C2=C(O)C(=O)C(c3ccc(CC)cc3)=C(O)C2=O)cc1`, the T/C (dose: 200.0 mg/kg/injection, schedule: Q04DX003 (sc), vehicle: saline with Tween-80) was 67 % of control.

`Clc1ccccc1C(Nc1cnccn1)Nc1cnccn1`: the T/C under setting [6] is 70 % of control and 89 % of control.

Consider `O=C1C=CC2OC(c3ccccc3)C(O)C2O1` (stereo not drawn), for which the T/C is, setting by setting: (dose: 25.0 mg/kg/injection, schedule: Q04DX003 (ip), vehicle: DMSO) 114 % of control; (dose: 50.0 mg/kg/injection, schedule: Q04DX003 (ip), vehicle: DMSO) 40 % of control.

`CCCCCCCCCCCCCCCCCCOCC(CO)OC` (stereo not drawn): the T/C runs as follows: (dose: 150.0 mg/kg/injection, schedule: Q04DX003 (ip), vehicle: saline with Tween-80) 117 % of control; under setting [6], 93 % of control; under setting [7], 81 % of control; under setting [8], 46 % of control.

`O=C(Nc1ccccc1CCl)Nc1ccccc1CCl`: the T/C under setting [8] was 9 % of control and 12 % of control and 20 % of control.

On to `CSc1cc(=O)n2c3ccccc3c3ccnc1c32`, for which the T/C (dose: 80.0 mg/kg/injection, schedule: Q04DX003 (sc), vehicle: saline with Tween-80) is 89 % of control; the T/C (dose: 160.0 mg/kg/injection, schedule: Q04DX003 (sc), vehicle: saline with Tween-80) was 26 % of control; the T/C (dose: 320.0 mg/kg/injection, schedule: Q04DX003 (sc), vehicle: saline with Tween-80) was 40 % of control.

On to `COc1cccc2c1C(=N)c1c(O)c3c(c(O)c1C2=O)C[C@@](O)(C(C)=O)C[C@@H]3OC1CC(N)C(O)C(C)O1` (stereo partly drawn), for which the T/C by setting is: (dose: 4.0 mg/kg/injection, schedule: Q01DX010 (sc), vehicle: water) 51 % of control; (dose: 8.0 mg/kg/injection, schedule: Q01DX010 (sc), vehicle: water) 56 % of control; (dose: 16.0 mg/kg/injection, schedule: Q01DX010 (sc), vehicle: water) 56 % of control.

Turning to `c1nnc(NCNc2nncs2)s1`, the T/C runs as follows: (dose: 50.0 mg/kg/injection, schedule: Q04DX003 (ip), vehicle: suspension in saline) 89 % of control; (dose: 100.0 mg/kg/injection, schedule: Q04DX003 (ip), vehicle: suspension in saline) 59 % of control; (dose: 200.0 mg/kg/injection, schedule: Q04DX003 (ip), vehicle: suspension in saline) 78 % of control; (dose: 400.0 mg/kg/injection, schedule: Q04DX003 (ip), vehicle: suspension in saline) 65 % of control.

In the case of `O=c1[nH]c(=O)n(C2CC(O)C(CO)O2)cc1F` (stereo not drawn), the T/C by setting is: (dose: 25.0 mg/kg/injection, schedule: Q01DX010 (sc), vehicle: water) 47 % of control and 68 % of control; (dose: 100.0 mg/kg/injection, schedule: Q01DX010 (sc), vehicle: water) 15 % of control and 18 % of control.

As to `NC(CNC(=O)CBr)C(=O)O` (stereo not drawn), the T/C is, setting by setting: (dose: 37.5 mg/kg/injection, schedule: Q04DX003 (sc), vehicle: water) 82 % of control; (dose: 150.0 mg/kg/injection, schedule: Q04DX003 (sc), vehicle: water) 54 % of control.

`O=C1C=C(N2CC2)C(=O)C(N2CC2)=C1N1CC1`: the T/C by setting is: (dose: 25.0 micrograms/kg/injection, schedule: Q04DX003 (ip), vehicle: saline) 4 % of control; (dose: 400.0 micrograms/kg/injection, schedule: Q04DX003 (ip), vehicle: saline) -100 % of control.

For the molecule `CC(=O)c1c(O)c(C)c(O)c2c1OC1=CC(=O)C(C(C)=O)C(=O)C12C` (stereo not drawn), the T/C runs as follows: (dose: 200.0 mg/kg/injection, schedule: Q01DX010 (sc), vehicle: sodium bicarbonate) 96 % of control; (dose: 400.0 mg/kg/injection, schedule: Q01DX010 (sc), vehicle: sodium bicarbonate) 72 % of control.

Consider `CN(CO)c1nc(N(C)CO)nc(N(C)CO)n1`, for which the T/C is, setting by setting: (dose: 6.25 mg/kg/injection, schedule: Q01DX010 (sc), vehicle: saline) 86 % of control; (dose: 12.5 mg/kg/injection, schedule: Q01DX010 (sc), vehicle: saline) 30 % of control; (dose: 25.0 mg/kg/injection, schedule: Q01DX010 (sc), vehicle: saline) 2 % of control; (dose: 100.0 mg/kg/injection, schedule: Q01DX010 (sc), vehicle: saline) 1 % of control.

With `Cc1nc(N)nc(N)c1N1CCN(c2ccc(C(=O)NC(CCC(=O)O)C(=O)O)cc2)CC1` (stereo not drawn), the T/C (dose: 12.5 mg/kg/injection, schedule: Q04DX003 (ip), vehicle: other) is 85 % of control; the T/C (dose: 25.0 mg/kg/injection, schedule: Q04DX003 (ip), vehicle: other) was 112 % of control; the T/C (dose: 50.0 mg/kg/injection, schedule: Q04DX003 (ip), vehicle: other) is 122 % of control; the T/C (dose: 100.0 mg/kg/injection, schedule: Q04DX003 (ip), vehicle: other) was 87 % of control.

Turning to `CC(=O)NCCSSCCCCS(=O)O`, the T/C runs as follows: under setting [2], 110 % of control; under setting [3], 112 % of control.

Take `CSCCC(N)C(=O)O` (stereo not drawn): the T/C by setting is: under setting [6], 101 % of control; under setting [7], 85 % of control and 105 % of control; under setting [8], 102 % of control and 112 % of control; (dose: 2400.0 mg/kg/injection, schedule: Q04DX003 (ip), vehicle: saline with Tween-80) 91 % of control and 106 % of control.

As to `CN(Cc1cnc2nc(N)nc(N)c2n1)c1c(Cl)cc(C(=O)NC(CCC(=O)O)C(=O)O)cc1Cl` (stereo not drawn), the T/C is, setting by setting: (dose: 12.5 mg/kg/injection, schedule: Q01DX010 (sc), vehicle: Klucel (hydroxypropylcellulose) (HPC)) 64 % of control; (dose: 25.0 mg/kg/injection, schedule: Q01DX010 (sc), vehicle: Klucel (hydroxypropylcellulose) (HPC)) 25 % of control; (dose: 50.0 mg/kg/injection, schedule: Q01DX010 (sc), vehicle: Klucel (hydroxypropylcellulose) (HPC)) -67 % of control.

Source of the values: PubChem BioAssay AID298 (DTP/NCI, 2004).
